# “And” between values parts separate entries of the source, which are not always exact repeats. Equal entries are not always repeated. Numbered stars: 1 amine (or outer) side, 2 acyl side, 3 side chain; on linkers, the order of the positions; unused ones are H or OH. Square brackets hold non-standard residues; d marks the D form. Peptide text beside a SMILES is read from it. * marks the point of attachment. ξ: configuration not given here. pY = N[C@@H](Cc1ccc(OP(=O)(O)O)cc1)C(=O)O; Met(O2) = CS(=O)(=O)CC[C@H](N)C(=O)O; X2 = O=C([C@H]1CCCN([*:1])C1)[*:2]; Hydrocinnamoyl = O=C(CCc1ccccc1)*; Hyp = O=C(O)[C@@H]1C[C@@H](O)CN1; Met(O) = CS(=O)CC[C@H](N)C(=O)O; Cha = N[C@@H](CC1CCCCC1)C(=O)O; Ile(3ξ) = CCC(C)[C@H](N)C(=O)O; Thr(3ξ) = CC(O)[C@H](N)C(=O)O; 3Abz = Nc1cccc(C(=O)O)c1; Nle = CCCC[C@H](N)C(=O)O; Piperidide = C1CCN(*)CC1; Pyrrolidide = C1CCN(*)C1; NHBn = c1ccc(CN*)cc1
# Biological target: Signal transducer and activator of transcription 3 (Mus musculus, UniProt P42227)
# Sequence (P42227 whole entry): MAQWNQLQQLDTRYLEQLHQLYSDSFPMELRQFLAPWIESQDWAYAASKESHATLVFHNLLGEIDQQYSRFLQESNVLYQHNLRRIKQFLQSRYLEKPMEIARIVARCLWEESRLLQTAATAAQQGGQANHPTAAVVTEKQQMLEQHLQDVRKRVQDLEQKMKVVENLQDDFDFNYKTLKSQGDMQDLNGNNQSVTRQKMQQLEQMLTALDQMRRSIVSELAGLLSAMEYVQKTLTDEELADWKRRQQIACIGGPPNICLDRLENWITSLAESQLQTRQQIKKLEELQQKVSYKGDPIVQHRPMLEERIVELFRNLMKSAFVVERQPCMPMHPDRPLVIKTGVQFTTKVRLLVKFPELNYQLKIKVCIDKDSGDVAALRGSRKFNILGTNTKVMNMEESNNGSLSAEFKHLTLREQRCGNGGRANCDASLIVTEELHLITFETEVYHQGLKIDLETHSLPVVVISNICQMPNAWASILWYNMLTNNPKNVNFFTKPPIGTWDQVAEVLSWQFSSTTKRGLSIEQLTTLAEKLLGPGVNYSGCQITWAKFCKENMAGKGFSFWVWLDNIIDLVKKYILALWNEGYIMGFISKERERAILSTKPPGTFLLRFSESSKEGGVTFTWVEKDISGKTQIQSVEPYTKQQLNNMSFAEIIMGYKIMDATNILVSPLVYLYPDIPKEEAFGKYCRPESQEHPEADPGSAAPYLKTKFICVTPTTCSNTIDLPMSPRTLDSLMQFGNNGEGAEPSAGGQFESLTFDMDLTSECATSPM
# Assay: Fluorescence Polarization Assay
# Conditions: not given
# Description: Fluorescence polarization (FP) binding assay is utilizing the intrinsic property of the fluorescent probe, which will have low polarization value when free in solution. On binding to a target, the polarization of the probe will increase. Reaction mixtures of full length STAT3 alpha and the probe were placed in wells of a 96-well microtiter plate. The test peptide solution was added to each well. Fluorescence polarization was then read in a Tecan Polarian plate reader. The IC50 values were obtained from nonlinear regression analysis in the one-site competition mode. Peptides were assayed three times using three separate Stat3-probe preparations. IC50 values are reported as the mean of three IC50 values +/- the standard deviation.
row,IC50,Structure (SMILES)
1,2110 nM,CC(=O)N[C@@H](Cc1ccc(OP(=O)(O)O)cc1)C(=O)N[C@@H](CC(C)C)C(=O)N1CCC[C@H]1C(=O)N[C@@H](CCC(N)=O)C(=O)N1CCCC1 [4-[(2S)-2-{[(2S)-1-[(2S)-2-{[(2S)-4-carbamoyl-1-oxo-1-(pyrrolidin-1-yl)butan-2-yl]carbamoyl}pyrrolidin-1-yl]-4-methyl-1-oxopentan-2-yl]carbamoyl}-2-acetamidoethyl]phenoxyphosphonic acid] (Ac-[pY]LPQ-Pyrrolidide)
2,36600 nM,CC(=O)N[C@@H](Cc1ccc(OP(=O)(O)O)cc1)C(=O)N[C@@H](CC(C)C)C(=O)N1CCC[C@H]1C(=O)Nc1cccc(C(N)=O)c1 [4-[(2S)-2-{[(2S)-1-[(2S)-2-[(3-carbamoylphenyl)carbamoyl]pyrrolidin-1-yl]-4-methyl-1-oxopentan-2-yl]carbamoyl}-2-acetamidoethyl]phenoxyphosphonic acid] (Ac-[pY]LP[3Abz]-NH2)
3,1690 nM,CC(=O)N[C@@H](Cc1ccc(OP(=O)(O)O)cc1)C(=O)N[C@@H](CC(C)C)C(=O)N1CCC[C@H]1C(=O)N1CCC(CC(N)=O)C1 (stereo partly drawn) [4-[(2S)-2-{[(2S)-1-[(2S)-2-{[3-(carbamoylmethyl)pyrrolidin-1-yl]carbonyl}pyrrolidin-1-yl]-4-methyl-1-oxopentan-2-yl]carbamoyl}-2-acetamidoethyl]phenoxyphosphonic acid]
4,7000 nM,CC(=O)N[C@@H](Cc1ccc(OP(=O)(O)O)cc1)C(=O)N[C@@H](CC(C)C)C(=O)N1CCC[C@H]1C(=O)N[C@@H](CCC(N)=O)C(=O)N1CCCCC1 [4-[(2S)-2-{[(2S)-1-[(2S)-2-{[(2S)-4-carbamoyl-1-oxo-1-(piperidin-1-yl)butan-2-yl]carbamoyl}pyrrolidin-1-yl]-4-methyl-1-oxopentan-2-yl]carbamoyl}-2-acetamidoethyl]phenoxyphosphonic acid] (Ac-[pY]LPQ-Piperidide)

row,Structure (SMILES),IC50
1,CC(=O)N[C@@H](Cc1ccc(OP(=O)(O)O)cc1)C(=O)N[C@@H](CC(C)C)C(=O)N1CCC[C@H]1C(=O)N[C@@H](CCC(N)=O)C(=O)NCc1ccccc1 (Ac-[pY]LPQ-NHBn),409 nM

# Same assay, conditions: pH 7.5; 22 °C
row,Structure (SMILES),IC50
1,"CC(C)C[C@H](NC(=O)[C@H](Cc1ccc(OP(=O)(O)O)cc1)NC(=O)CCc1ccccc1)C(=O)N1CCC[C@H]1C(=O)N[C@@H](CCC(N)=O)C(=O)N[C@H](C(N)=O)C(C)O (stereo partly drawn) [4-[(2S)-2-{[(2S)-1-[(2S)-2-{[(1S)-3-carbamoyl-1-{[(1S,2S)-1-carbamoyl-2-hydroxypropyl]carbamoyl}propyl]carbamoyl}pyrrolidin-1-yl]-4-methyl-1-oxopentan-2-yl]carbamoyl}-2-(3-phenylpropanamido)ethyl]phenoxyphosphonic acid] (Hydrocinnamoyl-[pY]LPQ[Thr(3ξ)]-NH2)",276 nM
2,"CC(=O)N[C@@H](Cc1ccc(OP(=O)(O)O)cc1)C(=O)N[C@@H](CC(C)C)C(=O)N1CCC[C@H]1C(=O)N[C@@H](CCC(N)=O)C(=O)N[C@H](C(N)=O)C(C)O (stereo partly drawn) [4-[(2S)-2-{[(2S)-1-[(2S)-2-{[(1S)-3-carbamoyl-1-{[(1S,2S)-1-carbamoyl-2-hydroxypropyl]carbamoyl}propyl]carbamoyl}pyrrolidin-1-yl]-4-methyl-1-oxopentan-2-yl]carbamoyl}-2-acetamidoethyl]phenoxyphosphonic acid]",739 nM
3,CCC(C)[C@H](NC(=O)[C@H](Cc1ccc(OP(=O)(O)O)cc1)NC(C)=O)C(=O)N1CCC[C@H]1C(=O)N[C@@H](CCC(N)=O)C(=O)N[C@H](C(N)=O)C(C)O (stereo partly drawn) [4-[(2S)-2-{[(2S)-1-[(2S)-2-{[(1S)-3-carbamoyl-1-{[(1S)-1-carbamoyl-2-hydroxypropyl]carbamoyl}propyl]carbamoyl}pyrrolidin-1-yl]-3-methyl-1-oxopentan-2-yl]carbamoyl}-2-acetamidoethyl]phenoxyphosphonic acid] (Ac-[pY][Ile(3ξ)]PQ[Thr(3ξ)]-NH2),1070 nM
4,"CC(=O)N[C@@H](Cc1ccc(OP(=O)(O)O)cc1)C(=O)N[C@@H](CC1CCCCC1)C(=O)N1CCC[C@H]1C(=O)N[C@@H](CCC(N)=O)C(=O)N[C@H](C(N)=O)C(C)O (stereo partly drawn) [4-[(2S)-2-{[(2S)-1-[(2S)-2-{[(1S)-3-carbamoyl-1-{[(1S,2S)-1-carbamoyl-2-hydroxypropyl]carbamoyl}propyl]carbamoyl}pyrrolidin-1-yl]-3-cyclohexyl-1-oxopropan-2-yl]carbamoyl}-2-acetamidoethyl]phenoxyphosphonic acid] (Ac-[pY][Cha]PQ[Thr(3ξ)]-NH2)",910 nM
5,"CCCC[C@H](NC(=O)[C@H](Cc1ccc(OP(=O)(O)O)cc1)NC(C)=O)C(=O)N1CCC[C@H]1C(=O)N[C@@H](CCC(N)=O)C(=O)N[C@H](C(N)=O)C(C)O (stereo partly drawn) [4-[(2S)-2-{[(2S)-1-[(2S)-2-{[(1S)-3-carbamoyl-1-{[(1S,2S)-1-carbamoyl-2-hydroxypropyl]carbamoyl}propyl]carbamoyl}pyrrolidin-1-yl]-1-oxohexan-2-yl]carbamoyl}-2-acetamidoethyl]phenoxyphosphonic acid] (Ac-[pY][Nle]PQ[Thr(3ξ)]-NH2)",717 nM
6,"CC(=O)N[C@@H](Cc1ccc(OP(=O)(O)O)cc1)C(=O)N[C@@H](CC(C)C)C(=O)N1CCC[C@H]1C(=O)N[C@@H](CC[S+](C)[O-])C(=O)N[C@H](C(N)=O)C(C)O (stereo partly drawn) [4-[(2S)-2-{[(2S)-1-[(2S)-2-{[(1S)-1-{[(1S,2S)-1-carbamoyl-2-hydroxypropyl]carbamoyl}-3-methanesulfinylpropyl]carbamoyl}pyrrolidin-1-yl]-4-methyl-1-oxopentan-2-yl]carbamoyl}-2-acetamidoethyl]phenoxyphosphonic acid] (Ac-[pY]LP[Met(O)][Thr(3ξ)]-NH2)",9870 nM
7,"CC(=O)N[C@@H](Cc1ccc(OP(=O)(O)O)cc1)C(=O)N[C@@H](CC(C)C)C(=O)N1CCC[C@H]1C(=O)N[C@@H](CCS(C)(=O)=O)C(=O)N[C@H](C(N)=O)C(C)O (stereo partly drawn) [4-[(2S)-2-{[(2S)-1-[(2S)-2-{[(1S)-1-{[(1S,2S)-1-carbamoyl-2-hydroxypropyl]carbamoyl}-3-methanesulfonylpropyl]carbamoyl}pyrrolidin-1-yl]-4-methyl-1-oxopentan-2-yl]carbamoyl}-2-acetamidoethyl]phenoxyphosphonic acid] (Ac-[pY]LP[Met(O2)][Thr(3ξ)]-NH2)",13900 nM
8,"CC(=O)N[C@@H](Cc1ccc(OP(=O)(O)O)cc1)C(=O)N[C@@H](CC(C)C)C(=O)N1CCC[C@H](C(=O)N[C@@H](CCC(N)=O)C(=O)N[C@H](C(N)=O)C(C)O)C1 (stereo partly drawn) [23, Ac-pTyr-Leu-Nip-Gln-Thr-NH2-2] (Ac-[pY]L[X2]Q[Thr(3ξ)]-NH2)",38600 nM and 33100 nM
9,"CC(=O)N[C@@H](Cc1ccc(OP(=O)(O)O)cc1)C(=O)N[C@@H](CC(C)C)C(=O)N1C[C@H](O)C[C@H]1C(=O)N[C@@H](CCC(N)=O)C(=O)N[C@H](C(N)=O)C(C)O (stereo partly drawn) [4-[(2S)-2-{[(2S)-1-[(2S,4R)-2-{[(1S)-3-carbamoyl-1-{[(1S,2S)-1-carbamoyl-2-hydroxypropyl]carbamoyl}propyl]carbamoyl}-4-hydroxypyrrolidin-1-yl]-4-methyl-1-oxopentan-2-yl]carbamoyl}-2-acetamidoethyl]phenoxyphosphonic acid] (Ac-[pY]L[Hyp]Q[Thr(3ξ)]-NH2)",484 nM
10,CC(=O)N[C@@H](Cc1ccc(OP(=O)(O)O)cc1)C(=O)N[C@@H](CC(C)C)C(=O)N1CCC[C@H]1C(=O)N[C@@H](CCC(N)=O)C(N)=O (Ac-[pY]LPQ-NH2),856 nM
